In US9629884B2, “Compositions and methods for increasing lifespan and health span” (GENEREX PHARMACEUTICALS, INC., priority 2009, dated 2017):

Assay: Blood glucose level in a diabetic patient (mercy treatment)
Format: in vivo, human
Details: Diamicron 80 mg, 2 tablets every morning, before OEGJ
Experimental: Based on the above-mentioned rationale, the possibility of using OEGJ for the treatment of diabetes was tested in diabetics on the basis of mercy treatment. A person was first diagnosed with diabetes before undergoing hemorrhoid surgery a year before treatment. Their blood glucose level at that time was 24.0 mmol/L. They were put on insulin treatment for a week and started to take diabetes medicine (Diamicron 80 mg, 2 tablets every morning under fasting condition).

Cc1ccc(S(=O)(=O)NC(=O)NN2CC3CCCC3C2)cc1 (stereo not shown) [Diamicron]
average blood glucose level during six-month period on the medication: 9.97 mmol/L
